Values of other authors in patent publication US7897820B2, “Process for preparing erianin” (Zhe Jiang Cell Biomedical Research Co., Ltd., priority 2005, dated 2011).

Legend:
microtubulin = conditions: target is the microtubulin in the cell
[1] = compared with 5FU
[2] = system: human leukemia HL-60 cells
tumor cell strain K256 = conditions: among dihydrobibenzyls and phenanthrenes in Dendrobium chrysotoxum

COc1ccc(CCc2cc(OC)c(OC)c(OC)c2)cc1O [Erianin, 2-methoxyl-5-[2-(3,4,5-trimethoxyphenyl)]ethyl phenol]
effect on polymerizing of microtubulin (microtubulin): inhibit the polymerizing of microtubulin | side effect [1]: far lower then 5FU | tumor inhibitory rate (liver cancer of mouse): 50.82% | inhibition of growth of human leukemia HL-60 cells [2]: significantly inhibited the growth | inhibitory effect on the growth of tumor cell strain K256 (tumor cell strain K256): most active
